Among the data in ChEMBL document CHEMBL5608259 (J Med Chem, 2024) are inhibition values, retold here.

Assay [1] has as its target T1, Histone-arginine methyltransferase CARM1 (Homo sapiens) (UniProt Q86X55).
T1 sequence (whole entry): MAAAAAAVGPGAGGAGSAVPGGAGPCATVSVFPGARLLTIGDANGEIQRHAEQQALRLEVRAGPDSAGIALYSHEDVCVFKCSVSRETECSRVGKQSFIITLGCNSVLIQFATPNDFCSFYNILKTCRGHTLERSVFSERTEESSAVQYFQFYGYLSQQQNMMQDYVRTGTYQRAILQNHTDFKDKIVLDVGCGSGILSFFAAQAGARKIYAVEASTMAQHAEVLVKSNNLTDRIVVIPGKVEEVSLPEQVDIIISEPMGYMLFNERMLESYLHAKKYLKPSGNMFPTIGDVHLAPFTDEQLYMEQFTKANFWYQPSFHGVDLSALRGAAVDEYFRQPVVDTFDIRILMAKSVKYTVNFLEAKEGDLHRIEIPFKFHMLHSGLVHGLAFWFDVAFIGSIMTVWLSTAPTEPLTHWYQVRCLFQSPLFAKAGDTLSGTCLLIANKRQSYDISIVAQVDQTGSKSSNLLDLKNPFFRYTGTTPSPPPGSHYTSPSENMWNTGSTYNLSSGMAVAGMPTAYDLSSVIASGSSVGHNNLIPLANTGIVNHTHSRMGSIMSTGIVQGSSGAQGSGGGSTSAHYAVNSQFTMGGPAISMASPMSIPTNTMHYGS
In words: Inhibition of human PRMT4 using histone H3 as substrate and SAM as cofactor at 10 uM by radiometric HotSpot assay relative to control.

Assay [2] deals with Protein arginine N-methyltransferase 8 (Homo sapiens, UniProt Q9NR22). In words: Inhibition of human PRMT8 using Histone H4 as substrate and SAM as cofactor at 10 uM by radiometric HotSpot assay relative to control.
Assay [3] deals with Protein arginine N-methyltransferase 6 (Homo sapiens, UniProt Q96LA8). Nature of the assay: Inhibition of human PRMT6 using GST-GAR as substrate and SAM as cofactor at 10 uM by radiometric HotSpot assay relative to control.
For assay [4], the target named is Protein arginine N-methyltransferase 3 (Homo sapiens, UniProt O60678). Nature of the assay: Inhibition of human PRMT3 using H4-21peptide as substrate at 10 uM incubated for 10 mins by fluorescence based analysis relative to control.
Assay [5] concerns the target Protein arginine N-methyltransferase 1 (Homo sapiens, UniProt Q99873). Nature of the assay: Inhibition of human PRMT1 using H4-21peptide as substrate at 10 uM incubated for 10 mins by fluorescence based analysis relative to control.

Chain of Protein arginine N-methyltransferase 6 (Q96LA8 whole entry, looked up): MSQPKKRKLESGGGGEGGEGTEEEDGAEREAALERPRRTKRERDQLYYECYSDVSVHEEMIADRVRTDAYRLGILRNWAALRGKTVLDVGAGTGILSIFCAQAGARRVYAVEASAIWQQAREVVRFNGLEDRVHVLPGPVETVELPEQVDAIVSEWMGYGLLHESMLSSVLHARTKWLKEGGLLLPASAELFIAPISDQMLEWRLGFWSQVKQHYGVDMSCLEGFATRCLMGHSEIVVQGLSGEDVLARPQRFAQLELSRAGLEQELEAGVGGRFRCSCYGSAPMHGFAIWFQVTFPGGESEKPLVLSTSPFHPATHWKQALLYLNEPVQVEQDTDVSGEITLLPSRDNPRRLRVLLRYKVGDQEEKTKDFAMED
Chain of Protein arginine N-methyltransferase 8 (Q9NR22 2-394 limits assumed): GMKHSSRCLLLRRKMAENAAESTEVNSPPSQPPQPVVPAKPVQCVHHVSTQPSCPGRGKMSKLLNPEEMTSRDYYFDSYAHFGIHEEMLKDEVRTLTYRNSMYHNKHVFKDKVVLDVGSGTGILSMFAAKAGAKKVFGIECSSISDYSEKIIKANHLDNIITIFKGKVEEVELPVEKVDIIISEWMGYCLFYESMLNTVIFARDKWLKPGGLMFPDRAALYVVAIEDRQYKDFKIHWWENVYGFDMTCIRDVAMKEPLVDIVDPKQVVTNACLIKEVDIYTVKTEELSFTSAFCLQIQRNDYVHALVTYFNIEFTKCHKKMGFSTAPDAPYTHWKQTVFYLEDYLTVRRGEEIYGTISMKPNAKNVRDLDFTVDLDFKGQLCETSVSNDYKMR
Chain of Protein arginine N-methyltransferase 1 (Q99873 whole entry, looked up): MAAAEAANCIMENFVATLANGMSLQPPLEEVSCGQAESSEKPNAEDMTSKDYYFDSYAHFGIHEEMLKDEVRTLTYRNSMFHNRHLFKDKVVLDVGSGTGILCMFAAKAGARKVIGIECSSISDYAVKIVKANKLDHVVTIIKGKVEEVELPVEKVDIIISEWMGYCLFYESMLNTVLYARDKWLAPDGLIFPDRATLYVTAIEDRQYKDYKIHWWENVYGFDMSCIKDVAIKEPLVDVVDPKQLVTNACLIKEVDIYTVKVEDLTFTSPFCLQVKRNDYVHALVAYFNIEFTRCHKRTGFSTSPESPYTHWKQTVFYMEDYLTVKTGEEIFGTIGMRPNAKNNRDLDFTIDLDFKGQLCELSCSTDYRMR
Chain of Protein arginine N-methyltransferase 3 (O60678 2-531 limits assumed): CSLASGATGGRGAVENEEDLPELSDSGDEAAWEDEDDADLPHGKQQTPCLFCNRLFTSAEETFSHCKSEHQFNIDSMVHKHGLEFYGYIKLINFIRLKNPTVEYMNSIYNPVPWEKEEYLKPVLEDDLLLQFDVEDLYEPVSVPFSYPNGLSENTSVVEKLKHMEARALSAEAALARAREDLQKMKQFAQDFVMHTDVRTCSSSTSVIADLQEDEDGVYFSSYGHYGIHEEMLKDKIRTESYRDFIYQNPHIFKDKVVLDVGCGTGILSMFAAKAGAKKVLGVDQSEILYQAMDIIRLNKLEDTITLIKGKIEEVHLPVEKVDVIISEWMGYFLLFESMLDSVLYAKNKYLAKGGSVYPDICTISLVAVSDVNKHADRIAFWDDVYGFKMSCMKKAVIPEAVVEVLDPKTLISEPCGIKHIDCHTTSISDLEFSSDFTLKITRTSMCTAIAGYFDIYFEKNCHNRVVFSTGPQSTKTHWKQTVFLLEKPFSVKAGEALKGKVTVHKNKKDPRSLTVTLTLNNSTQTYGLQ

As usually defined, the inhibition is the percentage by which the read-out fell short of the control. Low readings indicate little suppression, high ones strong suppression. For the molecule `Nc1ncnc2c1ncn2[C@@H]1O[C@H](CSCCNCc2cccc(-c3ccncc3)c2)[C@@H](O)[C@H]1O`, the inhibition was greater than 90% in assay [1], greater than 50% in assay [2], 50% in assay [3] and less than 30% in assay [4].

As to `Nc1ncnc2c1ncn2[C@@H]1O[C@H](CSCCCNCc2cccc(-c3ccoc3)c2)[C@@H](O)[C@H]1O`, the inhibition in assay [1] was greater than 90%; in assay [2] it was greater than 50%; in assay [3], 50%; in assay [4], less than 30%.

Consider `Nc1ncnc2c1ncn2[C@@H]1O[C@H](CSCCNCc2cccc(-c3cccc4cn[nH]c34)c2)[C@@H](O)[C@H]1O`, for which the inhibition is greater than 90% in assay [1], greater than 50% in assay [2], 50% in assay [3] and less than 30% in assay [4].

Consider `N=C(NCCCSC[C@H]1O[C@@H](n2cnc3c(N)ncnc32)[C@H](O)[C@@H]1O)Nc1cccc(-c2cncnc2)c1`, for which the inhibition in assay [1] is greater than 90%; in assay [2], greater than 95%; in assay [3], greater than 90%; in assay [5], greater than 50%.

With `Nc1ncnc2c1ncn2[C@@H]1O[C@H](CSCCCNCc2cccc(-c3ccc(C(F)(F)F)cc3)c2)[C@@H](O)[C@H]1O`, the inhibition in assay [1] is greater than 90%; in assay [2], greater than 50%; in assay [3], 50%; in assay [4] it was less than 30%.

For the molecule `Nc1ncnc2c1ncn2[C@@H]1O[C@H](CSCCCNCc2cccc(-c3cccc4cn[nH]c34)c2)[C@@H](O)[C@H]1O`, the inhibition in assay [1] is greater than 90%; in assay [2] it was greater than 50%; in assay [3], 50%; in assay [4], less than 30%.

Take `Nc1ncnc2c1ncn2[C@@H]1O[C@H](CSCCCNCc2cccc(-c3ccc(F)c(O)c3)c2)[C@@H](O)[C@H]1O`: the inhibition in assay [1] is greater than 90%; in assay [2] it was greater than 50%; in assay [3] it was 50%; in assay [4], less than 30%.

As to `N=C(NCCCSC[C@H]1O[C@@H](n2cnc3c(N)ncnc32)[C@H](O)[C@@H]1O)Nc1cccc(-c2ccc(Cl)cc2)c1`, the inhibition was greater than 90% in assay [1], greater than 95% in assay [2], greater than 90% in assay [3] and greater than 50% in assay [5].

With `N=C(NCCCSC[C@H]1O[C@@H](n2cnc3c(N)ncnc32)[C@H](O)[C@@H]1O)Nc1cccc(-c2ccc(C(F)(F)F)cc2)c1`, the inhibition in assay [1] was greater than 90%; in assay [2] it was greater than 95%; in assay [3] it was greater than 90%; in assay [5] it was greater than 50%.

For `N=C(NCCCSC[C@H]1O[C@@H](n2cnc3c(N)ncnc32)[C@H](O)[C@@H]1O)Nc1cccc(-c2ccoc2)c1`, the inhibition was greater than 90% in assay [1], greater than 95% in assay [2], greater than 90% in assay [3] and greater than 50% in assay [5].

In the case of `N=C(NCCSC[C@H]1O[C@@H](n2cnc3c(N)ncnc32)[C@H](O)[C@@H]1O)Nc1cccc(-c2ccc(Cl)cc2)c1`, the inhibition in assay [1] was greater than 90%; in assay [2], greater than 95%; in assay [3], greater than 90%; in assay [5] it was greater than 50%.

For `N=C(NCCCSC[C@H]1O[C@@H](n2cnc3c(N)ncnc32)[C@H](O)[C@@H]1O)Nc1cccc(-c2ccc(O)cc2)c1`, the inhibition in assay [1] is greater than 90%; in assay [2], greater than 95%; in assay [3], greater than 90%; in assay [5], greater than 50%.

Regarding `Nc1ncnc2c1ncn2[C@@H]1O[C@H](CSCCCNCc2cccc(-c3ccc(O)cc3)c2)[C@@H](O)[C@H]1O`, the inhibition in assay [1] was greater than 90%; in assay [2], greater than 50%; in assay [3], 50%; in assay [4], less than 30%.

In the case of `Nc1ncnc2c1ncn2[C@@H]1O[C@H](CSCCNCc2cccc(-c3ccc(C(F)(F)F)cc3)c2)[C@@H](O)[C@H]1O`, the inhibition in assay [1] was greater than 90%; in assay [2], greater than 50%; in assay [3] it was 50%; in assay [4], less than 30%.

For `N=C(NCCCSC[C@H]1O[C@@H](n2cnc3c(N)ncnc32)[C@H](O)[C@@H]1O)Nc1cccc(-c2ccc(F)c(O)c2)c1`, the inhibition is greater than 90% in assay [1], greater than 95% in assay [2], greater than 90% in assay [3] and greater than 50% in assay [5].

Regarding `N=C(NCCSC[C@H]1O[C@@H](n2cnc3c(N)ncnc32)[C@H](O)[C@@H]1O)Nc1cccc(-c2cccc(F)c2)c1`, the inhibition in assay [1] was greater than 90%; in assay [2], greater than 95%; in assay [3], greater than 90%; in assay [5], greater than 50%.

For the molecule `N=C(NCCCSC[C@H]1O[C@@H](n2cnc3c(N)ncnc32)[C@H](O)[C@@H]1O)Nc1cccc(-c2n[nH]cc2C(F)(F)F)c1`, the inhibition was greater than 90% in assay [1], greater than 95% in assay [2], greater than 90% in assay [3] and greater than 50% in assay [5].

Consider `N=C(NCCCSC[C@H]1O[C@@H](n2cnc3c(N)ncnc32)[C@H](O)[C@@H]1O)Nc1cccc(-c2cccc(F)c2)c1`, for which the inhibition in assay [1] is greater than 90%; in assay [2], greater than 95%; in assay [3], greater than 90%; in assay [5], greater than 50%.

`Nc1ncnc2c1ncn2[C@@H]1O[C@H](CSCCNCc2cccc(-c3ccc(Cl)cc3)c2)[C@@H](O)[C@H]1O`: the inhibition in assay [1] is greater than 90%; in assay [2], greater than 50%; in assay [3] it was 50%; in assay [4], less than 30%.

For the molecule `Nc1ncnc2c1ncn2[C@@H]1O[C@H](CSCCNCc2cccc(-c3ccc(O)cc3)c2)[C@@H](O)[C@H]1O`, the inhibition in assay [1] was greater than 90%; in assay [2] it was greater than 50%; in assay [3], 50%; in assay [4], less than 30%.

Consider `N=C(NCCCSC[C@H]1O[C@@H](n2cnc3c(N)ncnc32)[C@H](O)[C@@H]1O)Nc1cccc(-c2ccc(F)cc2F)c1`, for which the inhibition was greater than 90% in assay [1], greater than 95% in assay [2], greater than 90% in assay [3] and greater than 50% in assay [5].

Turning to `N=C(NCCSC[C@H]1O[C@@H](n2cnc3c(N)ncnc32)[C@H](O)[C@@H]1O)Nc1cccc(-c2ccc(C(F)(F)F)cc2)c1`, the inhibition is greater than 90% in assay [1], greater than 95% in assay [2], greater than 90% in assay [3] and greater than 50% in assay [5].

`N=C(NCCSC[C@H]1O[C@@H](n2cnc3c(N)ncnc32)[C@H](O)[C@@H]1O)Nc1cccc(I)c1`: the inhibition in assay [1] is greater than 90%; in assay [2], greater than 95%; in assay [3], greater than 90%; in assay [5] it was greater than 50%.

Regarding `N=C(NCCCSC[C@H]1O[C@@H](n2cnc3c(N)ncnc32)[C@H](O)[C@@H]1O)Nc1cccc(-c2cccc([N+](=O)[O-])c2)c1`, the inhibition in assay [1] is greater than 90%; in assay [2] it was greater than 95%; in assay [3] it was greater than 90%; in assay [5], greater than 50%.

For `N=C(NCCCSC[C@H]1O[C@@H](n2cnc3c(N)ncnc32)[C@H](O)[C@@H]1O)Nc1cccc(-c2ccc(F)nc2)c1`, the inhibition in assay [1] is greater than 90%; in assay [2], greater than 95%; in assay [3], greater than 90%; in assay [5], greater than 50%.

Regarding `N=C(NCCSC[C@H]1O[C@@H](n2cnc3c(N)ncnc32)[C@H](O)[C@@H]1O)Nc1cccc(-c2ccoc2)c1`, the inhibition in assay [1] is greater than 90%; in assay [2], greater than 95%; in assay [3], greater than 90%; in assay [5], greater than 50%.
